Values quoted from earlier work, collected in US20090155335A1, “NON-LEACHING NON-FOULING ANTIMICROBIAL COATINGS” (priority 2007, published 2009).

Tested on: methicillin resistant and vancomycin intermediate-resistant Staphylococcus aureus
Conditions: Dacron graft soaked in dermaseptin solution, rat

## dermaseptin
  efficacy of released dermaseptin against resistant S. aureus: effective
